Measurements published in ChEMBL document CHEMBL1255467, “Comparative in vitro antimicrobial activities of torezolid (TR-700), the active moiety of a new oxazolidinone, torezolid phosphate (TR-701), determination of tentative disk diffusion interpretive criteria, and quality control ranges” (2010).

How the values were obtained:
Haemophilus influenzae [1] = assay: Antimicrobial activity against beta-lactamase negative Haemophilus influenzae by broth dilution method; format: functional; conditions: Haemophilus influenzae
Haemophilus influenzae [2] = assay: Antimicrobial activity against beta-lactamase positive Haemophilus influenzae by broth dilution method; format: functional; conditions: Haemophilus influenzae; for MIC90: read-out: MIC90
Enterococcus faecium [3] = assay: Antimicrobial activity against vancomycin-susceptible Enterococcus faecium by broth dilution method; format: functional; conditions: Enterococcus faecium
Streptococcus sp = assay: Antimicrobial activity against streptococcal sp. by broth dilution method; conditions: Streptococcus sp.
Staphylococcus aureus [4] = assay: Antimicrobial activity against vancomycin-nonsusceptible Staphylococcus aureus by broth dilution method; format: functional; conditions: Staphylococcus aureus
Streptococcus viridans = assay: Antimicrobial activity against Streptococcus viridans by broth dilution method; format: functional
Listeria monocytogenes = assay: Antimicrobial activity against Listeria monocytogenes by broth dilution method; format: functional
Enterococcus faecium [5] = assay: Antimicrobial activity against vancomycin-resistant Enterococcus faecium by broth dilution method; format: functional
Staphylococcus sp. [6] = assay: Antimicrobial activity against Staphylococcus sp. by broth dilution method; format: functional; conditions: Staphylococcus sp.
Streptococcus pneumoniae [7] = assay: Antimicrobial activity against penicillin-intermediate Streptococcus pneumoniae by broth dilution method; format: functional; conditions: Streptococcus pneumoniae
Haemophilus influenzae [8] = assay: Antimicrobial activity against Haemophilus influenzae by broth dilution method; format: functional; conditions: Haemophilus influenzae
Staphylococcus sp. [9] = assay: Antimicrobial activity against methicillin-susceptible coagulase-negative Staphylococcus by broth dilution method; format: functional; conditions: Staphylococcus sp.
Streptococcus pneumoniae [10] = assay: Antimicrobial activity against penicillin-susceptible Streptococcus pneumoniae by broth dilution method; format: functional; conditions: Streptococcus pneumoniae
Streptococcus pneumoniae [11] = assay: Antimicrobial activity against penicillin-resistant Streptococcus pneumoniae by broth dilution method; format: functional
Enterococcus sp. = assay: Antimicrobial activity against Enterococcus by broth dilution method; format: functional; conditions: Enterococcus sp.
Staphylococcus sp. [12] = assay: Antimicrobial activity against methicillin-resistant coagulase-negative Staphylococcus by broth dilution method; format: functional
Moraxella catarrhalis = assay: Antimicrobial activity against Moraxella catarrhalis by broth dilution method; format: functional
Corynebacterium jeikeium = assay: Antimicrobial activity against Corynebacterium jeikeium by broth dilution method; format: functional
Staphylococcus aureus [13] = assay: Antimicrobial activity against methicillin-resistant Staphylococcus aureus by broth dilution method; format: functional; conditions: Staphylococcus aureus
Enterococcus faecalis [14] = assay: Antimicrobial activity against vancomycin-susceptible Enterococcus faecalis by broth dilution method; format: functional; conditions: Enterococcus faecalis
Streptococcus pneumoniae [15] = assay: Antimicrobial activity against Streptococcus pneumoniae by broth dilution method; format: functional; conditions: Streptococcus pneumoniae
Staphylococcus aureus [16] = assay: Antimicrobial activity against Staphylococcus aureus by broth dilution method; format: functional; conditions: Staphylococcus aureus
Staphylococcus aureus [17] = assay: Antimicrobial activity against methicillin-susceptible Staphylococcus aureus by broth dilution method; format: functional; conditions: Staphylococcus aureus
Haemophilus influenzae [18] = assay: Antimicrobial activity against ampicillin-nonsusceptible beta-lactamase negative Haemophilus influenzae by broth dilution method; format: functional; conditions: Haemophilus influenzae
Enterococcus faecalis [19] = assay: Antimicrobial activity against vancomycin-resistant Enterococcus faecalis by broth dilution method; format: functional
Staphylococcus aureus [20] = assay: Antimicrobial activity against linezolid-resistant Staphylococcus aureus by broth dilution method; format: functional

CO/N=C(\C(=O)N[C@@H]1C(=O)N2C(C(=O)O)=C(COC(C)=O)CS[C@H]12)c1csc(N)n1 [CEFOTAXIME]
0.03 µg/mL: MIC50 (Streptococcus sp) | MIC90 (Streptococcus pneumoniae [10])
0.5 µg/mL: MIC90 (Streptococcus viridans) | MIC90 (Streptococcus pneumoniae [7]) | MIC90 (Haemophilus influenzae [8]) | MIC50 (Staphylococcus sp. [9]) | MIC50 (Haemophilus influenzae [18]) | MIC90 (Haemophilus influenzae [18])
8 µg/mL: MIC90 (Streptococcus pneumoniae [11]) | MIC50 (Staphylococcus sp. [12])
4 µg/mL: MIC50 (Staphylococcus sp. [6])
2 µg/mL: MIC90 (Staphylococcus sp. [9]) | MIC90 (Streptococcus pneumoniae [15]) | MIC50 (Staphylococcus aureus [17]) | MIC90 (Staphylococcus aureus [17])
> 64 µg/mL: MIC50 (Enterococcus faecium [3]) | MIC90 (Enterococcus faecium [3]) | MIC50 (Staphylococcus aureus [4]) | MIC90 (Staphylococcus aureus [4]) | MIC (Enterococcus faecium [5]) | MIC90 (Staphylococcus sp. [6]) | MIC50 (Enterococcus sp.) | MIC90 (Enterococcus sp.) | MIC50 (Enterococcus faecalis [14]) | MIC90 (Enterococcus faecalis [14]) | MIC90 (Staphylococcus aureus [16])
> 8 µg/mL: MIC50 (Staphylococcus aureus [16])
1 µg/mL: MIC90 (Streptococcus sp) | MIC50 (Streptococcus pneumoniae [11]) | MIC90 (Moraxella catarrhalis)
0.12 µg/mL: MIC50 (Streptococcus viridans) | MIC50 (Streptococcus pneumoniae [7]) | MIC50 (Streptococcus pneumoniae [15])
16 µg/mL: MIC50 (Staphylococcus aureus [13])
0.008 µg/mL: MIC (Haemophilus influenzae [1]) | MIC50 (Haemophilus influenzae [1])
32 µg/mL: MIC50 (Listeria monocytogenes) | MIC90 (Listeria monocytogenes) | MIC50 (Corynebacterium jeikeium) | MIC90 (Corynebacterium jeikeium)
0.015 µg/mL: MIC90 (Haemophilus influenzae [1]) | MIC50 (Haemophilus influenzae [2]) | MIC90 (Haemophilus influenzae [2]) | MIC50 (Haemophilus influenzae [8]) | MIC (Streptococcus pneumoniae [10]) | MIC50 (Streptococcus pneumoniae [10])
0.25 µg/mL: MIC50 (Moraxella catarrhalis)

C[C@H]1COc2c(N3CCN(C)CC3)c(F)cc3c(=O)c(C(=O)O)cn1c23.C[C@H]1COc2c(N3CCN(C)CC3)c(F)cc3c(=O)c(C(=O)O)cn1c23.O [LEVOFLOXACIN]
0.06 µg/mL: MIC50 (Moraxella catarrhalis) | MIC90 (Moraxella catarrhalis)
0.25 µg/mL: MIC50 (Staphylococcus sp. [9]) | MIC50 (Staphylococcus aureus [17])
4 µg/mL: MIC50 (Enterococcus faecium [3]) | MIC50 (Staphylococcus aureus [16]) | MIC90 (Staphylococcus aureus [17])
0.5 µg/mL: MIC50 (Staphylococcus sp. [6]) | MIC90 (Staphylococcus sp. [9])
8 µg/mL: MIC50 (Staphylococcus sp. [12]) | MIC50 (Staphylococcus aureus [13])
16 µg/mL: MIC50 (Staphylococcus aureus [4])
2 µg/mL: MIC90 (Streptococcus viridans)
0.12 µg/mL: MIC (Haemophilus influenzae [1]) | MIC50 (Haemophilus influenzae [1]) | MIC90 (Haemophilus influenzae [1]) | MIC (Haemophilus influenzae [2]) | MIC50 (Haemophilus influenzae [2]) | MIC90 (Haemophilus influenzae [2]) | MIC (Haemophilus influenzae [8]) | MIC50 (Haemophilus influenzae [8]) | MIC90 (Haemophilus influenzae [8]) | MIC (Haemophilus influenzae [18]) | MIC50 (Haemophilus influenzae [18]) | MIC90 (Haemophilus influenzae [18])
> 16 µg/mL: MIC90 (Enterococcus faecium [3]) | MIC90 (Staphylococcus aureus [4]) | MIC50 (Enterococcus faecium [5]) | MIC90 (Staphylococcus sp. [6]) | MIC50 (Enterococcus faecalis [19]) | MIC50 (Enterococcus sp.) | MIC90 (Enterococcus sp.) | MIC (Corynebacterium jeikeium) | MIC50 (Corynebacterium jeikeium) | MIC90 (Corynebacterium jeikeium) | MIC50 (Staphylococcus aureus [20]) | MIC90 (Enterococcus faecalis [14]) | MIC90 (Staphylococcus aureus [16])
1 µg/mL: MIC50 (Streptococcus sp) | MIC90 (Streptococcus sp) | MIC50 (Streptococcus viridans) | MIC (Listeria monocytogenes) | MIC50 (Listeria monocytogenes) | MIC90 (Listeria monocytogenes) | MIC50 (Streptococcus pneumoniae [7]) | MIC90 (Streptococcus pneumoniae [7]) | MIC50 (Streptococcus pneumoniae [10]) | MIC90 (Streptococcus pneumoniae [10]) | MIC50 (Streptococcus pneumoniae [11]) | MIC90 (Streptococcus pneumoniae [11]) | MIC50 (Enterococcus faecalis [14]) | MIC50 (Streptococcus pneumoniae [15]) | MIC90 (Streptococcus pneumoniae [15])
